The subject of the first test is 454973-116-R2-J3-PDC spheroids, viability, % test/control. In words: Anticancer human tumor 454973-116-R2-J3-PDC patient-derived pancreatic carcinoma cell line growth inhibition [GQUAD]. To be noted: second compound 0.316 µM; first compound 1 µM; active compounds read low; spheroids with HUVEC and MSC. The procedure, abridged: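 Viability of tumor cells grown as complex spheroids with endothelial and stromal cells, exposed to drug combinations. Top concentration at or near clinical Cmax (else 10 microM), diluted in half-log increments.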
In general, viability, T/C refers to the result in the treated group divided by that in the control group, in per cent. Regarding `C=CC(=O)N1CCN(c2nc(=O)n(-c3c(C)ccnc3C(C)C)c3nc(-c4c(O)cccc4F)c(F)cc23)C(C)C1` (configuration not stated) + Cc1cnc(CNC(=O)c2c(=O)c3ccc(N4CCCN(C)CC4)nc3n3c2sc2ccccc23)cn1, the viability, T/C was 78.5%.
`CC(C)n1c(=O)n(C)c2cnc3cc(F)c(-c4ccc(OCCCN5CCCCC5)nc4)cc3c21` + Cc1cnc(CNC(=O)c2c(=O)c3ccc(N4CCCN(C)CC4)nc3n3c2sc2ccccc23)cn1: the viability, T/C is 38.8%.
Consider `Cc1cccc(N(C)C(=O)C2C(O)CCN2c2nc(C)cc(C(F)(F)F)c2C#N)c1` (configuration not stated) + Cc1cnc(CNC(=O)c2c(=O)c3ccc(N4CCCN(C)CC4)nc3n3c2sc2ccccc23)cn1, for which the viability, T/C is 67.6%.
As for `O=C(c1cc(Cc2n[nH]c(=O)c3ccccc23)ccc1F)N1CCN(C(=O)C2CC2)CC1` + Cc1cnc(CNC(=O)c2c(=O)c3ccc(N4CCCN(C)CC4)nc3n3c2sc2ccccc23)cn1, the viability, T/C was 65.3%.

Staying with this test, now noted: second compound 0.316 µM; first compound 3.16 µM; active compounds read low; spheroids with HUVEC and MSC.
Regarding `C=CC(=O)N1CCN(c2nc(=O)n(-c3c(C)ccnc3C(C)C)c3nc(-c4c(O)cccc4F)c(F)cc23)C(C)C1` (configuration not stated) + Cc1cnc(CNC(=O)c2c(=O)c3ccc(N4CCCN(C)CC4)nc3n3c2sc2ccccc23)cn1, the viability, T/C is 85.8%.
In the case of `CC(C)n1c(=O)n(C)c2cnc3cc(F)c(-c4ccc(OCCCN5CCCCC5)nc4)cc3c21` + Cc1cnc(CNC(=O)c2c(=O)c3ccc(N4CCCN(C)CC4)nc3n3c2sc2ccccc23)cn1, the viability, T/C was 40.3%.
`Cc1cccc(N(C)C(=O)C2C(O)CCN2c2nc(C)cc(C(F)(F)F)c2C#N)c1` (configuration not stated) + Cc1cnc(CNC(=O)c2c(=O)c3ccc(N4CCCN(C)CC4)nc3n3c2sc2ccccc23)cn1: the viability, T/C is 70.8%.
In the case of `O=C(c1cc(Cc2n[nH]c(=O)c3ccccc23)ccc1F)N1CCN(C(=O)C2CC2)CC1` + Cc1cnc(CNC(=O)c2c(=O)c3ccc(N4CCCN(C)CC4)nc3n3c2sc2ccccc23)cn1, the viability, T/C was 54.9%.

The same test, now with this note: second compound 0.316 µM; first compound 10 µM; active compounds read low; spheroids with HUVEC and MSC.
As for `C=CC(=O)N1CCN(c2nc(=O)n(-c3c(C)ccnc3C(C)C)c3nc(-c4c(O)cccc4F)c(F)cc23)C(C)C1` (configuration not stated) + Cc1cnc(CNC(=O)c2c(=O)c3ccc(N4CCCN(C)CC4)nc3n3c2sc2ccccc23)cn1, the viability, T/C was 76.7%.
Turning to `CC(C)n1c(=O)n(C)c2cnc3cc(F)c(-c4ccc(OCCCN5CCCCC5)nc4)cc3c21` + Cc1cnc(CNC(=O)c2c(=O)c3ccc(N4CCCN(C)CC4)nc3n3c2sc2ccccc23)cn1, the viability, T/C was 33.7%.
The same measure, in the same setting: for `Cc1cccc(N(C)C(=O)C2C(O)CCN2c2nc(C)cc(C(F)(F)F)c2C#N)c1` (configuration not stated) + Cc1cnc(CNC(=O)c2c(=O)c3ccc(N4CCCN(C)CC4)nc3n3c2sc2ccccc23)cn1 the value was 66.1%; for `O=C(c1cc(Cc2n[nH]c(=O)c3ccccc23)ccc1F)N1CCN(C(=O)C2CC2)CC1` + Cc1cnc(CNC(=O)c2c(=O)c3ccc(N4CCCN(C)CC4)nc3n3c2sc2ccccc23)cn1, 45.9%.

Staying with this test, now noted: second compound 1 µM; first compound 0.0316 µM; active compounds read low; spheroids with HUVEC and MSC.
With `C=CC(=O)N1CCN(c2nc(=O)n(-c3c(C)ccnc3C(C)C)c3nc(-c4c(O)cccc4F)c(F)cc23)C(C)C1` (configuration not stated) + Cc1cnc(CNC(=O)c2c(=O)c3ccc(N4CCCN(C)CC4)nc3n3c2sc2ccccc23)cn1, the viability, T/C is 73.9%.
Turning to `CC(C)n1c(=O)n(C)c2cnc3cc(F)c(-c4ccc(OCCCN5CCCCC5)nc4)cc3c21` + Cc1cnc(CNC(=O)c2c(=O)c3ccc(N4CCCN(C)CC4)nc3n3c2sc2ccccc23)cn1, the viability, T/C was 52.4%.
The same measure, in the same setting: for `Cc1cccc(N(C)C(=O)C2C(O)CCN2c2nc(C)cc(C(F)(F)F)c2C#N)c1` (configuration not stated) + Cc1cnc(CNC(=O)c2c(=O)c3ccc(N4CCCN(C)CC4)nc3n3c2sc2ccccc23)cn1 the value was 71.9%.
For `O=C(c1cc(Cc2n[nH]c(=O)c3ccccc23)ccc1F)N1CCN(C(=O)C2CC2)CC1` + Cc1cnc(CNC(=O)c2c(=O)c3ccc(N4CCCN(C)CC4)nc3n3c2sc2ccccc23)cn1, the viability, T/C was 60.5%.

Still in this test, the particulars now being: second compound 1 µM; first compound 0.1 µM; active compounds read low; spheroids with HUVEC and MSC.
With `C=CC(=O)N1CCN(c2nc(=O)n(-c3c(C)ccnc3C(C)C)c3nc(-c4c(O)cccc4F)c(F)cc23)C(C)C1` (configuration not stated) + Cc1cnc(CNC(=O)c2c(=O)c3ccc(N4CCCN(C)CC4)nc3n3c2sc2ccccc23)cn1, the viability, T/C was 72.4%.
Take `CC(C)n1c(=O)n(C)c2cnc3cc(F)c(-c4ccc(OCCCN5CCCCC5)nc4)cc3c21` + Cc1cnc(CNC(=O)c2c(=O)c3ccc(N4CCCN(C)CC4)nc3n3c2sc2ccccc23)cn1: the viability, T/C was 48.4%.
Consider `Cc1cccc(N(C)C(=O)C2C(O)CCN2c2nc(C)cc(C(F)(F)F)c2C#N)c1` (configuration not stated) + Cc1cnc(CNC(=O)c2c(=O)c3ccc(N4CCCN(C)CC4)nc3n3c2sc2ccccc23)cn1, for which the viability, T/C was 65.5%.
Same read-out and setting: the result for `O=C(c1cc(Cc2n[nH]c(=O)c3ccccc23)ccc1F)N1CCN(C(=O)C2CC2)CC1` + Cc1cnc(CNC(=O)c2c(=O)c3ccc(N4CCCN(C)CC4)nc3n3c2sc2ccccc23)cn1 reads 65.3%.

Staying with this test, now noted: second compound 1 µM; first compound 0.316 µM; active compounds read low; spheroids with HUVEC and MSC.
Consider `C=CC(=O)N1CCN(c2nc(=O)n(-c3c(C)ccnc3C(C)C)c3nc(-c4c(O)cccc4F)c(F)cc23)C(C)C1` (configuration not stated) + Cc1cnc(CNC(=O)c2c(=O)c3ccc(N4CCCN(C)CC4)nc3n3c2sc2ccccc23)cn1, for which the viability, T/C is 75.2%.
Turning to `CC(C)n1c(=O)n(C)c2cnc3cc(F)c(-c4ccc(OCCCN5CCCCC5)nc4)cc3c21` + Cc1cnc(CNC(=O)c2c(=O)c3ccc(N4CCCN(C)CC4)nc3n3c2sc2ccccc23)cn1, the viability, T/C is 46.9%.
As for `Cc1cccc(N(C)C(=O)C2C(O)CCN2c2nc(C)cc(C(F)(F)F)c2C#N)c1` (configuration not stated) + Cc1cnc(CNC(=O)c2c(=O)c3ccc(N4CCCN(C)CC4)nc3n3c2sc2ccccc23)cn1, the viability, T/C is 61.2%.
Take `O=C(c1cc(Cc2n[nH]c(=O)c3ccccc23)ccc1F)N1CCN(C(=O)C2CC2)CC1` + Cc1cnc(CNC(=O)c2c(=O)c3ccc(N4CCCN(C)CC4)nc3n3c2sc2ccccc23)cn1: the viability, T/C was 64%.

The same test, now with this note: second compound 1 µM; first compound 1 µM; active compounds read low; spheroids with HUVEC and MSC.
In the case of `C=CC(=O)N1CCN(c2nc(=O)n(-c3c(C)ccnc3C(C)C)c3nc(-c4c(O)cccc4F)c(F)cc23)C(C)C1` (configuration not stated) + Cc1cnc(CNC(=O)c2c(=O)c3ccc(N4CCCN(C)CC4)nc3n3c2sc2ccccc23)cn1, the viability, T/C is 81.1%.
As for `CC(C)n1c(=O)n(C)c2cnc3cc(F)c(-c4ccc(OCCCN5CCCCC5)nc4)cc3c21` + Cc1cnc(CNC(=O)c2c(=O)c3ccc(N4CCCN(C)CC4)nc3n3c2sc2ccccc23)cn1, the viability, T/C was 48.7%.
As to `Cc1cccc(N(C)C(=O)C2C(O)CCN2c2nc(C)cc(C(F)(F)F)c2C#N)c1` (configuration not stated) + Cc1cnc(CNC(=O)c2c(=O)c3ccc(N4CCCN(C)CC4)nc3n3c2sc2ccccc23)cn1, the viability, T/C was 65.2%.
In the case of `O=C(c1cc(Cc2n[nH]c(=O)c3ccccc23)ccc1F)N1CCN(C(=O)C2CC2)CC1` + Cc1cnc(CNC(=O)c2c(=O)c3ccc(N4CCCN(C)CC4)nc3n3c2sc2ccccc23)cn1, the viability, T/C was 63.7%.

The same test, now with this note: second compound 1 µM; first compound 3.16 µM; active compounds read low; spheroids with HUVEC and MSC.
Consider `C=CC(=O)N1CCN(c2nc(=O)n(-c3c(C)ccnc3C(C)C)c3nc(-c4c(O)cccc4F)c(F)cc23)C(C)C1` (configuration not stated) + Cc1cnc(CNC(=O)c2c(=O)c3ccc(N4CCCN(C)CC4)nc3n3c2sc2ccccc23)cn1, for which the viability, T/C is 90.8%.
As to `CC(C)n1c(=O)n(C)c2cnc3cc(F)c(-c4ccc(OCCCN5CCCCC5)nc4)cc3c21` + Cc1cnc(CNC(=O)c2c(=O)c3ccc(N4CCCN(C)CC4)nc3n3c2sc2ccccc23)cn1, the viability, T/C is 51.8%.
`Cc1cccc(N(C)C(=O)C2C(O)CCN2c2nc(C)cc(C(F)(F)F)c2C#N)c1` (configuration not stated) + Cc1cnc(CNC(=O)c2c(=O)c3ccc(N4CCCN(C)CC4)nc3n3c2sc2ccccc23)cn1: the viability, T/C was 65%.
As for `O=C(c1cc(Cc2n[nH]c(=O)c3ccccc23)ccc1F)N1CCN(C(=O)C2CC2)CC1` + Cc1cnc(CNC(=O)c2c(=O)c3ccc(N4CCCN(C)CC4)nc3n3c2sc2ccccc23)cn1, the viability, T/C was 58.2%.

The test is the same for the next values; noted with them: second compound 1 µM; first compound 10 µM; active compounds read low; spheroids with HUVEC and MSC.
As to `C=CC(=O)N1CCN(c2nc(=O)n(-c3c(C)ccnc3C(C)C)c3nc(-c4c(O)cccc4F)c(F)cc23)C(C)C1` (configuration not stated) + Cc1cnc(CNC(=O)c2c(=O)c3ccc(N4CCCN(C)CC4)nc3n3c2sc2ccccc23)cn1, the viability, T/C is 73.4%.
Turning to `CC(C)n1c(=O)n(C)c2cnc3cc(F)c(-c4ccc(OCCCN5CCCCC5)nc4)cc3c21` + Cc1cnc(CNC(=O)c2c(=O)c3ccc(N4CCCN(C)CC4)nc3n3c2sc2ccccc23)cn1, the viability, T/C was 48.2%.
Turning to `Cc1cccc(N(C)C(=O)C2C(O)CCN2c2nc(C)cc(C(F)(F)F)c2C#N)c1` (configuration not stated) + Cc1cnc(CNC(=O)c2c(=O)c3ccc(N4CCCN(C)CC4)nc3n3c2sc2ccccc23)cn1, the viability, T/C was 70%.
Consider `O=C(c1cc(Cc2n[nH]c(=O)c3ccccc23)ccc1F)N1CCN(C(=O)C2CC2)CC1` + Cc1cnc(CNC(=O)c2c(=O)c3ccc(N4CCCN(C)CC4)nc3n3c2sc2ccccc23)cn1, for which the viability, T/C is 55.4%.

Still in this test, the particulars now being: second compound 3.16 µM; first compound 0.0316 µM; active compounds read low; spheroids with HUVEC and MSC.
Regarding `C=CC(=O)N1CCN(c2nc(=O)n(-c3c(C)ccnc3C(C)C)c3nc(-c4c(O)cccc4F)c(F)cc23)C(C)C1` (configuration not stated) + Cc1cnc(CNC(=O)c2c(=O)c3ccc(N4CCCN(C)CC4)nc3n3c2sc2ccccc23)cn1, the viability, T/C was 59.2%.
In the case of `CC(C)n1c(=O)n(C)c2cnc3cc(F)c(-c4ccc(OCCCN5CCCCC5)nc4)cc3c21` + Cc1cnc(CNC(=O)c2c(=O)c3ccc(N4CCCN(C)CC4)nc3n3c2sc2ccccc23)cn1, the viability, T/C is 53.7%.
On to `Cc1cccc(N(C)C(=O)C2C(O)CCN2c2nc(C)cc(C(F)(F)F)c2C#N)c1` (configuration not stated) + Cc1cnc(CNC(=O)c2c(=O)c3ccc(N4CCCN(C)CC4)nc3n3c2sc2ccccc23)cn1, for which the viability, T/C was 64.2%.
For `O=C(c1cc(Cc2n[nH]c(=O)c3ccccc23)ccc1F)N1CCN(C(=O)C2CC2)CC1` + Cc1cnc(CNC(=O)c2c(=O)c3ccc(N4CCCN(C)CC4)nc3n3c2sc2ccccc23)cn1, the viability, T/C was 74.2%.

Still in this test, the particulars now being: second compound 3.16 µM; first compound 0.1 µM; active compounds read low; spheroids with HUVEC and MSC.
For `C=CC(=O)N1CCN(c2nc(=O)n(-c3c(C)ccnc3C(C)C)c3nc(-c4c(O)cccc4F)c(F)cc23)C(C)C1` (configuration not stated) + Cc1cnc(CNC(=O)c2c(=O)c3ccc(N4CCCN(C)CC4)nc3n3c2sc2ccccc23)cn1, the viability, T/C was 64.3%.
Take `CC(C)n1c(=O)n(C)c2cnc3cc(F)c(-c4ccc(OCCCN5CCCCC5)nc4)cc3c21` + Cc1cnc(CNC(=O)c2c(=O)c3ccc(N4CCCN(C)CC4)nc3n3c2sc2ccccc23)cn1: the viability, T/C was 65.8%.

These data come from PubChem BioAssay AID2060508 (Molecular Pharmacology Branch, DTP, NCI, 2025).
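Note: spheroids exposed to compounds for seven days; 100% = DMSO vehicle control viability.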
